# Source: patent US20080312435A1, “Imine Compound” (TAISHO PHARMACEUTICAL CO., LTD., priority 2004, published 2008)
# Molecular target: T1, human CB2 receptor (Homo sapiens, UniProt P34972)
# T1 construct: expressed in transfected cells
# Assay: Human CB2 receptor binding inhibition test ([3H]CP-55,940, CHO membrane fractions)
# Settings: [3H]CP-55,940, membrane fractions of CHO cells stably expressing human CB2 receptor, 25° C., 2 hours; read-out: CB2 IC50 (Inhibition of binding to human CB2 receptor)
# Source text: Human CB2 Receptor Binding Inhibition Test
# First, cDNA sequence (Munro et al., Nature, 1993, 365, 61-65) encoding a human CB2 receptor was inserted in the forward direction in an animal-cell expression vector, pTARGET Vector (manufactured by Promega) at a region downstream of a CMV promoter. Host cells CHO-DHFR(−) were transfected with the obtained expression vector with the aid of Lipofectamine (manufactured by Invitrogen) to obtain cells capable of stably expressing the CB2 receptor.
# After the filtrate was washed with an assay buffer containing 0.1% bovine serum albumin, the radioactivity on the glass filter was measured by a liquid scintillation counter. Nonspecific binding was measured in the presence of 2.0 μM CP-55,940 (manufactured by Tocris). 50% inhibitory concentration (IC50 value) of the test compound for the specific binding was obtained.
# T1 sequence (P34972 whole entry): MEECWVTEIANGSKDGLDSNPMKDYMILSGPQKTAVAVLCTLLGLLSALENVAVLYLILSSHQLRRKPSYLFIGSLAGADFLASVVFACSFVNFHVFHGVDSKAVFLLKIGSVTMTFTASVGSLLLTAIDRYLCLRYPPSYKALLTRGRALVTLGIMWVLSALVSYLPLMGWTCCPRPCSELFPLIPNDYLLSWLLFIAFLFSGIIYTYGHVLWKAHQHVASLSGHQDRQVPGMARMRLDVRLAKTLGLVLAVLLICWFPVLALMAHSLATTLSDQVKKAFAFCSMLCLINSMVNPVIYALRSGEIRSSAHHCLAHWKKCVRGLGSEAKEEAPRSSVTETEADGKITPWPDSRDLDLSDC
row,SMILES,IC50 [nM]
1,Cc1c(C(C)(C)C)s/c(=N\C(=O)c2cc(F)ccc2C(F)(F)F)n1C [compound 143],7.4
2,Cc1ccc(F)c(C(=O)/N=c2\sc(C(C)(C)C)c(C)n2C)c1F [compound 144],4.3
3,COc1ccc(Cl)cc1C(=O)/N=c1\sc(C(C)(C)C)c(C)n1C [compound 146],6.6
4,COc1cc(Cl)ccc1C(=O)/N=c1\sc(C(C)(C)C)c(C)n1C [compound 147],9.6
5,Cc1c(C(C)(C)C)s/c(=N\C(=O)C(F)(F)C(F)(F)C(F)(F)F)n1C [compound 149],12.2
6,CCn1c(C)c(C(C)(C)C)s/c1=N\C(=O)c1ccccc1C(F)(F)F [compound 151],3.2
7,CCn1c(C)c(C(C)(C)C)s/c1=N\C(=O)c1ccccc1OC(F)(F)F [compound 153],17.8
8,CCn1c(C)c(C(C)(C)C)s/c1=N\C(=O)c1cc(Br)ccc1F [compound 154],5.9
9,CCn1c(C)c(C(C)(C)C)s/c1=N\C(=O)c1cc(F)ccc1Br [compound 155],4.3
10,CCn1c(C)c(C(C)(C)C)s/c1=N\C(=O)c1ccc(F)cc1Br [compound 156],11.4
11,CCn1c(C)c(C(C)(C)C)s/c1=N\C(=O)c1cc(I)ccc1F [compound 157],12.1
12,CCn1c(C)c(C(C)(C)C)s/c1=N\C(=O)c1cc(Cl)ccc1Cl [compound 158],7.1
13,CCn1c(C)c(C(C)(C)C)s/c1=N\C(=O)c1cc(F)c(F)cc1Cl [compound 159],8.4
14,CCn1c(C)c(C(C)(C)C)s/c1=N\C(=O)c1cc(F)c(Cl)cc1Cl [compound 160],8.5
15,CCn1c(C)c(C(C)(C)C)s/c1=N\C(=O)c1cc(F)ccc1C [compound 161],9.7
16,CCn1c(C)c(C(C)(C)C)s/c1=N\C(=O)c1ccc(Cl)cc1C [compound 162],12
17,CCn1c(C)c(C(C)(C)C)s/c1=N\C(=O)c1ccc(C)cc1Br [compound 163],14.9
18,CCn1c(C)c(C(C)(C)C)s/c1=N\C(=O)c1cc(F)ccc1C(F)(F)F [compound 164],4.1
19,CCn1c(C)c(C(C)(C)C)s/c1=N\C(=O)c1cccc(C(F)(F)F)c1F [compound 165],4.3
20,CCn1c(C)c(C(C)(C)C)s/c1=N\C(=O)c1cc(Cl)ccc1OC [compound 167],4.6
21,CCn1c(C)c(C(C)(C)C)s/c1=N\C(=O)c1cnccc1C(F)(F)F [compound 170],13.8
22,CCn1c(C)c(C(C)(C)C)s/c1=N\C(=O)c1cc(C(F)(F)F)ccc1OC(F)F [compound 174],11.7
23,Cc1cccc(C(=O)/N=c2\sc(C(C)(C)C)c(C)n2CC2CC2)c1 [compound 179],17.8

row,SMILES,IC50 [nM]
1,Cc1c(C(C)(C)C)s/c(=N\C(=O)c2ccccc2F)n1CC1CC1 [compound 185],11
2,Cc1c(C(C)(C)C)s/c(=N\C(=O)c2cccc(I)c2)n1CC1CC1 [compound 192],13.2
3,COc1cccc(C(=O)/N=c2\sc(C(C)(C)C)c(C)n2CC2CC2)c1 [compound 194],19.1
4,Cc1c(C(C)(C)C)s/c(=N\C(=O)c2cccc(OC(F)(F)F)c2)n1CC1CC1 [compound 196],7.6
5,Cc1c(C(C)(C)C)s/c(=N\C(=O)c2cccc(OC(F)(F)C(F)F)c2)n1CC1CC1 [compound 198],2.7
6,CNc1ccccc1C(=O)/N=c1\sc(C(C)(C)C)c(C)n1CC1CC1 [compound 200],15.1
7,Cc1c(C(C)(C)C)s/c(=N\C(=O)c2cccc(N(C)C)c2)n1CC1CC1 [compound 201],19.1
8,Cc1c(C(C)(C)C)s/c(=N\C(=O)c2cccc([N+](=O)[O-])c2)n1CC1CC1 [compound 209],1.4
9,Cc1c(C(C)(C)C)s/c(=N\C(=O)c2ccc(C#N)cc2)n1CC1CC1 [compound 210],15.7
10,Cc1ccc(C(=O)/N=c2\sc(C(C)(C)C)c(C)n2CC2CC2)c(C)c1 [compound 216],1.7
11,Cc1ccc(C)c(C(=O)/N=c2\sc(C(C)(C)C)c(C)n2CC2CC2)c1 [compound 217],2.6
12,Cc1cccc(C)c1C(=O)/N=c1\sc(C(C)(C)C)c(C)n1CC1CC1 [compound 218],5.7
13,Cc1c(C(C)(C)C)s/c(=N\C(=O)c2cc(C(F)(F)F)ccc2C(F)(F)F)n1CC1CC1 [compound 220],3.9
14,Cc1c(C(C)(C)C)s/c(=N\C(=O)c2cc(F)ccc2F)n1CC1CC1 [compound 221],15.6
15,Cc1c(C(C)(C)C)s/c(=N\C(=O)c2ccc(F)cc2F)n1CC1CC1 [compound 224],13
16,Cc1c(C(C)(C)C)s/c(=N\C(=O)c2ccc(Cl)cc2F)n1CC1CC1 [compound 226],7.7
17,Cc1c(C(C)(C)C)s/c(=N\C(=O)c2ccc(Br)cc2F)n1CC1CC1 [compound 227],8.2
18,Cc1c(C(C)(C)C)s/c(=N\C(=O)c2cc(Br)ccc2F)n1CC1CC1 [compound 230],1.5
19,Cc1c(C(C)(C)C)s/c(=N\C(=O)c2cc(I)ccc2F)n1CC1CC1 [compound 231],3
20,COc1ccc(OC)c(C(=O)/N=c2\sc(C(C)(C)C)c(C)n2CC2CC2)c1 [compound 234],0.7
21,CCOc1ccc(OCC)c(C(=O)/N=c2\sc(C(C)(C)C)c(C)n2CC2CC2)c1 [compound 238],4.4
22,Cc1ccc(F)c(C(=O)/N=c2\sc(C(C)(C)C)c(C)n2CC2CC2)c1 [compound 239],2.4
23,Cc1ccc(F)cc1C(=O)/N=c1\sc(C(C)(C)C)c(C)n1CC1CC1 [compound 241],1

# Test system: not given
# Assay: not given
# Settings: not given
row,SMILES,melting point [°C]
1,Cc1c(C(C)(C)C)s/c(=N\C(=O)c2cc(F)ccc2C(F)(F)F)n1C [compound 143],83 to 85
2,Cc1ccc(F)c(C(=O)/N=c2\sc(C(C)(C)C)c(C)n2C)c1F [compound 144],140 to 142
3,COc1ccc(Cl)cc1C(=O)/N=c1\sc(C(C)(C)C)c(C)n1C [compound 146],177 to 179
4,COc1cc(Cl)ccc1C(=O)/N=c1\sc(C(C)(C)C)c(C)n1C [compound 147],117 to 119
5,Cc1c(C(C)(C)C)s/c(=N\C(=O)C(F)(F)C(F)(F)C(F)(F)F)n1C [compound 149],180 to 182
6,CCn1c(C)c(C(C)(C)C)s/c1=N\C(=O)c1ccccc1C(F)(F)F [compound 151],74 to 76
7,CCn1c(C)c(C(C)(C)C)s/c1=N\C(=O)c1ccccc1OC(F)(F)F [compound 153],104 to 105
8,CCn1c(C)c(C(C)(C)C)s/c1=N\C(=O)c1cc(Br)ccc1F [compound 154],105 to 106
9,CCn1c(C)c(C(C)(C)C)s/c1=N\C(=O)c1cc(F)ccc1Br [compound 155],115 to 116
10,CCn1c(C)c(C(C)(C)C)s/c1=N\C(=O)c1ccc(F)cc1Br [compound 156],99 to 100
11,CCn1c(C)c(C(C)(C)C)s/c1=N\C(=O)c1cc(I)ccc1F [compound 157],87 to 89
12,CCn1c(C)c(C(C)(C)C)s/c1=N\C(=O)c1cc(Cl)ccc1Cl [compound 158],127 to 128
13,CCn1c(C)c(C(C)(C)C)s/c1=N\C(=O)c1cc(F)c(F)cc1Cl [compound 159],107 to 108
14,CCn1c(C)c(C(C)(C)C)s/c1=N\C(=O)c1cc(F)c(Cl)cc1Cl [compound 160],112 to 114
15,CCn1c(C)c(C(C)(C)C)s/c1=N\C(=O)c1cc(F)ccc1C [compound 161],108 to 109
16,CCn1c(C)c(C(C)(C)C)s/c1=N\C(=O)c1ccc(Cl)cc1C [compound 162],125 to 126
17,CCn1c(C)c(C(C)(C)C)s/c1=N\C(=O)c1ccc(C)cc1Br [compound 163],100 to 102
18,CCn1c(C)c(C(C)(C)C)s/c1=N\C(=O)c1cc(F)ccc1C(F)(F)F [compound 164],103 to 104
19,CCn1c(C)c(C(C)(C)C)s/c1=N\C(=O)c1cccc(C(F)(F)F)c1F [compound 165],97 to 99
20,CCn1c(C)c(C(C)(C)C)s/c1=N\C(=O)c1cc(Cl)ccc1OC [compound 167],108 to 109
21,CCn1c(C)c(C(C)(C)C)s/c1=N\C(=O)c1cnccc1C(F)(F)F [compound 170],110 to 112
22,CCn1c(C)c(C(C)(C)C)s/c1=N\C(=O)c1cc(C(F)(F)F)ccc1OC(F)F [compound 174],95 to 97
23,Cc1cccc(C(=O)/N=c2\sc(C(C)(C)C)c(C)n2CC2CC2)c1 [compound 179],132 to 134

row,SMILES,melting point [°C]
1,Cc1c(C(C)(C)C)s/c(=N\C(=O)c2ccccc2F)n1CC1CC1 [compound 185],182 to 183
2,Cc1c(C(C)(C)C)s/c(=N\C(=O)c2cccc(I)c2)n1CC1CC1 [compound 192],114 to 115
3,COc1cccc(C(=O)/N=c2\sc(C(C)(C)C)c(C)n2CC2CC2)c1 [compound 194],108 to 109
4,Cc1c(C(C)(C)C)s/c(=N\C(=O)c2cccc(OC(F)(F)F)c2)n1CC1CC1 [compound 196],106 to 108
5,Cc1c(C(C)(C)C)s/c(=N\C(=O)c2cccc(OC(F)(F)C(F)F)c2)n1CC1CC1 [compound 198],109 to 111
6,CNc1ccccc1C(=O)/N=c1\sc(C(C)(C)C)c(C)n1CC1CC1 [compound 200],158 to 159
7,Cc1c(C(C)(C)C)s/c(=N\C(=O)c2cccc(N(C)C)c2)n1CC1CC1 [compound 201],128 to 130
8,Cc1c(C(C)(C)C)s/c(=N\C(=O)c2cccc([N+](=O)[O-])c2)n1CC1CC1 [compound 209],87 to 89
9,Cc1c(C(C)(C)C)s/c(=N\C(=O)c2ccc(C#N)cc2)n1CC1CC1 [compound 210],125 to 126
10,Cc1ccc(C(=O)/N=c2\sc(C(C)(C)C)c(C)n2CC2CC2)c(C)c1 [compound 216],100 to 101
11,Cc1ccc(C)c(C(=O)/N=c2\sc(C(C)(C)C)c(C)n2CC2CC2)c1 [compound 217],106 to 107
12,Cc1cccc(C)c1C(=O)/N=c1\sc(C(C)(C)C)c(C)n1CC1CC1 [compound 218],98 to 100
13,Cc1c(C(C)(C)C)s/c(=N\C(=O)c2cc(C(F)(F)F)ccc2C(F)(F)F)n1CC1CC1 [compound 220],159 to 161
14,Cc1c(C(C)(C)C)s/c(=N\C(=O)c2cc(F)ccc2F)n1CC1CC1 [compound 221],170 to 172
15,Cc1c(C(C)(C)C)s/c(=N\C(=O)c2ccc(F)cc2F)n1CC1CC1 [compound 224],111 to 112
16,Cc1c(C(C)(C)C)s/c(=N\C(=O)c2ccc(Cl)cc2F)n1CC1CC1 [compound 226],108 to 110
17,Cc1c(C(C)(C)C)s/c(=N\C(=O)c2ccc(Br)cc2F)n1CC1CC1 [compound 227],121 to 131
18,Cc1c(C(C)(C)C)s/c(=N\C(=O)c2cc(Br)ccc2F)n1CC1CC1 [compound 230],113 to 114
19,Cc1c(C(C)(C)C)s/c(=N\C(=O)c2cc(I)ccc2F)n1CC1CC1 [compound 231],95 to 96
20,COc1ccc(OC)c(C(=O)/N=c2\sc(C(C)(C)C)c(C)n2CC2CC2)c1 [compound 234],83 to 85
21,CCOc1ccc(OCC)c(C(=O)/N=c2\sc(C(C)(C)C)c(C)n2CC2CC2)c1 [compound 238],97 to 99
22,Cc1ccc(F)c(C(=O)/N=c2\sc(C(C)(C)C)c(C)n2CC2CC2)c1 [compound 239],117 to 119
23,Cc1ccc(F)cc1C(=O)/N=c1\sc(C(C)(C)C)c(C)n1CC1CC1 [compound 241],91 to 93
